Data reported in ChEMBL document CHEMBL1201862, “PubChem BioAssay data set” (2004).
Active and inactive are the calls of the source.

Key:
cells [1] = details: HEK293
[2] = HEK293 cell cytotoxicity, dose response, cytotoxicity control, plate reader, cherry-picked samples (AID 743446); type: functional, cell-based
[3] = LGR2 antagonists, dose response, cell-based, HEK293, CRE-luciferase reporter, cherry pick, set 2 (AID 743343); type: functional;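 also: transfected cells were stimulated with diluted bursicon conditioned medium after compound addition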
[4] = A549 cell cytotoxicity, dose response, cytotoxicity control, plate reader, cherry-pick, antagonist series (AID 743412); type: functional, cell-based
Jurkat = experiment: antigen receptor-induced NF-kB inhibitors, dose response, Jurkat, luciferase reporter, luminescence, B- and T-cell (AID 489004); type: functional, cell-based; details: Homo sapiens;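 also: NF-kB luciferase reporter Jurkat cells stimulated with PMA plus ionomycin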
[5] = MC4R antagonists, dose response, counter-screen for LGR2 antagonist project, cell-based, plate reader, cherry pick (AID 743444); type: functional;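 also: transfected HEK 293 cells stimulated with alpha-MSH peptide; potency of inhibitors of the alpha-MSH evoked signal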
[6] = inhibitors of PGC1a acetylation in cells, dose response, cell-based, cherry-picked samples (AID 720514); type: functional;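 also: potency may reflect raised or lowered acetylation signal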
[7] = HepG2 cell cytotoxicity, dose response, cytotoxicity control, plate reader, cherry-pick, antagonist series (AID 743416); type: functional, cell-based
[8] = cytotoxicity in HEK-293T NF-kB-Luc cells, dose response, cytotoxicity control for B/T-cell NF-kB inhibitor project, cell-based, uHTS hits (AID 489019); type: functional;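 also: IC50 reflects cytotoxicity as loss of cell viability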
INS1 = experiment: beta cell apoptosis inhibitors, cytokine rescue, dose response, luminescence, retest (AID 449756); type: functional, cell-based; details: Rattus norvegicus;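 also: cell death triggered by IL-1 beta plus TNF-alpha plus IFN-gamma mixture; protective hits raise ATP signal compared with cytokine alone wells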
[9] = Shn3 3'UTR reporter inhibitors, dose response, cell-based, Clone20 osteoblasts, firefly luciferase, cherry-picked (AID 624132); type: functional;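 also: firefly luciferase luminescence from reporter carrying the Shn3 3'UTR in osteoblasts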
[10] = control 3'UTR Renilla luciferase suppression, dose response, counter-screen for Shn3 inhibitor project, cell-based, Clone20-Shn3RL, cherry-picked (AID 624133); type: functional
[11] = HepG2 cell cytotoxicity, dose response, cytotoxicity control for Shn3 inhibitor project, CellTiter-Glo, cherry-picked (AID 624134); type: functional, cell-based
Genome polyprotein = Genome polyprotein (Hepatitis C virus, UniProt Q2Q167); experiment: HCV core protein dimerization inhibitors, dose response, biochemical, TR-FRET (AID 2159); set-up: species or system Hepacivirus hominis;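 also: blocks dimerization of HCV core protein measured by TR-FRET between tagged core106 pairs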
[12] = target: T1, Tyrosine-protein phosphatase non-receptor type 7 (Homo sapiens, UniProt P35236); experiment: inhibitors of human HePTP phosphatase, […], biochemical, absorbance, leukemia target (AID 521); type: functional
T1 sequence (P35236 whole entry): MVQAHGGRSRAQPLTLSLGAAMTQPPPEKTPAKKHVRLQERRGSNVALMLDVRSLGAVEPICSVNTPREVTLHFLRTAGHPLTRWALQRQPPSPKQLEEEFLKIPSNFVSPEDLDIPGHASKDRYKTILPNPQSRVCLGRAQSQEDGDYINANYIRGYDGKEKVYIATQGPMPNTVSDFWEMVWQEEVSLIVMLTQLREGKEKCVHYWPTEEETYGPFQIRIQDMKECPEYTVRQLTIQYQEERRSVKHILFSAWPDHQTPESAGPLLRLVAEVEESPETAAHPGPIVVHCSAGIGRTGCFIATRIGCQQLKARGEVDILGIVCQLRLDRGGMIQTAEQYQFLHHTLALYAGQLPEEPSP

[13] = Luminescence Cell-Based Dose Confirmation HTS to Identify Inhibitors of Platelet Dense Granule Release. [Related pubchem assays: 1663 (Primary HTS), 1678 (Summary of Project)]; type: functional
[14] = Fluorescence Cell-Based Dose Response to Identify Inhibitors of Thrombin Receptor-Activating Peptide SFLLRN-Mediated P-Selectin Induction on Platelets. [Related pubchem assays: 1663 (Primary HTS), 1889 (retest at dose ), 1891 (counterscreen), 1678 (Project Summary)]; type: functional
[15] = target: Luciferin 4-monooxygenase (Photinus pyralis, UniProt P08659); experiment: firefly luciferase enzyme inhibitors, dose response, biochemical, luminescence (AID 1891)
[16] = CCRF-CEM leukemia cell viability loss, dose response, HRAS target identification, CellTiter-Glo ATP luminescence, 8/24/48 h, dry powder (AID 720607); type: functional, cell-based
[17] = HT-29 colorectal cell cytotoxicity over time, dose response, HRas target identification project, CellTiter-Glo, multiple timepoints, dry powder (AID 720598); type: functional, cell-based
[18] = C2C12 myoblast ATP-based viability loss, dose response, cytotoxicity control for HRAS target identification, cell-based, CellTiter-Glo ATP luminescence, 8/24/48 h, dry powder (AID 720603); type: functional
[19] = LOX IMVI melanoma cell viability loss, dose response, HRAS target identification, CellTiter-Glo ATP luminescence, 8/24/48 h, dry powder (AID 720602); type: functional, cell-based
[20] = SNB-19 glioblastoma cell viability over time, late-stage follow-up, mechanism study for HRAS target identification, CellTiter-Glo ATP luminescence, 8-48 h, dry powder (AID 720611); type: functional, cell-based
[21] = SNB-19 glioblastoma cell viability loss, dose response, HRAS target identification, Alamar Blue fluorescence, 8/24/48 h, dry powder (AID 720600); type: functional, cell-based
[22] = SR lymphoma cell viability over time, late-stage follow-up, mechanism study for HRAS target identification, CellTiter-Glo ATP luminescence, 8-48 h, dry powder (AID 720608); type: functional, cell-based
[23] = U-251 glioblastoma cell viability loss, dose response, HRAS target identification, Alamar Blue fluorescence, 8/24/48 h, dry powder (AID 720605); type: functional, cell-based
[24] = Dose-response inhibition of insulin secretion in a rat insulinoma line at 5 mM glucose (AID 1117331); type: functional, cell-based; details: INS-1E
cells [25] = type: functional, cell-based; details: INS-1E
[26] = growth suppression of PTEN-null colon cells, dose response, cell-based, HCT116 PTEN knockout (AID 1047); type: functional;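 also: HCT116 colon tumor cells with PTEN knocked out; cells exposed to compound for 60 hours before readout; potency for loss of cell viability measured by luminescence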
[27] = Artemis endonuclease inhibitor potency, dose response, biochemical, fluorescence intensity (AID 720701); type: functional;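 also: Artemis endonuclease enzyme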
[28] = growth suppression of beta-catenin-knockout colon cells, dose response, cell-based, HCT116, human colon tumor (AID 1045); type: functional;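 also: HCT116 colon tumor cells with beta catenin knocked out; cells exposed to compound for 60 hours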
X-box-binding protein 1 = target: T2, X-box-binding protein 1 (Homo sapiens, UniProt P17861); type: functional, Cricetulus griseus;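 also: confirmatory dose-response counter-screen serving a CHOP assay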
T2 sequence (P17861 whole entry): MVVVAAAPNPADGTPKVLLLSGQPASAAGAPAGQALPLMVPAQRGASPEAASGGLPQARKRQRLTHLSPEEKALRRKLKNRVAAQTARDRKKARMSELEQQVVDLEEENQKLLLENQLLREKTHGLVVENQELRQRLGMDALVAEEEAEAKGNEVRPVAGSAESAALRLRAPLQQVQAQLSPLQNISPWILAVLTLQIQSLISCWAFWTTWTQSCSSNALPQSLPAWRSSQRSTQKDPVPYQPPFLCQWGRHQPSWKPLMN

Luciferin 4-monooxygenase, sequence (P08659 whole entry): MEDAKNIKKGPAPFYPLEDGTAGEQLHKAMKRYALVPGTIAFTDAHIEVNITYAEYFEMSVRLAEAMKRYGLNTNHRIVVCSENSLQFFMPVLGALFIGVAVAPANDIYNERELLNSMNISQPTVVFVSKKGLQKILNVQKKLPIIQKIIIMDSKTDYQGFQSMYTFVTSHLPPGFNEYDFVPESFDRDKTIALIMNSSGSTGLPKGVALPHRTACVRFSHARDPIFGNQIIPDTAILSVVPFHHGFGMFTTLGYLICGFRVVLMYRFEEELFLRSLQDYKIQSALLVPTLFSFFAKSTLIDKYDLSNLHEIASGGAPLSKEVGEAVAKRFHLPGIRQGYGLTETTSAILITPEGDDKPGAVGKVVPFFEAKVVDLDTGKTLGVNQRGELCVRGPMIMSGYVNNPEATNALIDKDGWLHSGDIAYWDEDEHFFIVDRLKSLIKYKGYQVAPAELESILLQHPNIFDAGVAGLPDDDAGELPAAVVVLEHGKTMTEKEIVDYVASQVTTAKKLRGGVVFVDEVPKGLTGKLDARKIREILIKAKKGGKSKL
Genome polyprotein, sequence (Q2Q167 whole entry): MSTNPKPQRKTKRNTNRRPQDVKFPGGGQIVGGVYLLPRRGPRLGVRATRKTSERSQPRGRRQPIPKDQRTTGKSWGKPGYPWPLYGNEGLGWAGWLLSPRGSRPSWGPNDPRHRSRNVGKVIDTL

Structure (SMILES): Cc1ccc(C(C)C)c(OCCn2/c(=N/C#N)[nH]c3ccccc32)c1
- AC50 (cells [1]): 34 µM (active)

Structure (SMILES): C#CC(=O)N(c1cccc(OC)c1)C(C(=O)NC1CCCC1)c1cccs1 (configuration not stated)
- AC50 [2]: 1.65 µM (active)
- AC50 [3]: 2.53 µM (active)
- AC50 [4]: 8.46 µM (active)
- IC50 (Jurkat): 0.25 µM (active)
- AC50 [5]: 2.25 µM (active)
- AC50 [6]: 3.82 µM (active)
- AC50 [7]: 0.96 µM (active)
- IC50 [8]: 28.4 µM (inactive)
- AC50 (INS1): 0.65 µM (active)
- AC50 [9]: 3.8 µM (active)
- AC50 [10]: 9.76 µM (active)
- AC50 [11]: 3.76 µM (active)

Structure (SMILES): Cc1ccc(OCC(=O)Nc2nnc(S(=O)(=O)N3CCC(C)CC3)s2)cc1
- IC50 (Genome polyprotein): > 49.8 µM (not active)

Structure (SMILES): CC(NC(N)=O)C12CC3CC(CC(C3)C1)C2 (configuration not stated)
- IC50 [12]: > 100 µM (not active)

Structure (SMILES): COc1cc2c(cc1OC)C(/C=C(\O)c1ccc(NC(C)=O)cc1)=NCC2
- EC50 [13]: 3.33 µM (active)
- EC50 [14]: < 0.3 µM (active)
- EC50 [15]: > 112 µM (not active)

Structure (SMILES): C#CCCCC(=O)NCCOCCOCCOc1ccc(N(C(=O)CCl)C(C(=O)NCCc2ccccc2)c2cccs2)cc1Cl (configuration not stated)
- AC50 [16]: 1.38 µM (active)
- AC50 [17]: 4.9 µM (active)
- AC50 [18]: 16.6 µM (active)
- AC50 [19]: 0.993 µM (active)
- AC50 [20]: 4.54 µM (active)
- AC50 [21]: 22.4 µM (active)
- AC50 [22]: 1.18 µM (active)
- AC50 [23]: 1.25 µM (active)

Structure (SMILES): CCOc1cc(CC(=O)N[C@@H](CC(C)C)c2ccccc2N2CCCCC2)ccc1C(=O)O [REPAGLINIDE]
- IC50 [24]: 0.027 µM (active)
- IC50 (cells [25]): 0.136 µM (active)

Structure (SMILES): O=C(c1ccc2c3c(cccc13)C(=O)N(O)C2=O)N1CCCCC1
- EC50 [26]: 11 µM (active)
- IC50 [27]: 11.5 µM (active)
- EC50 [28]: 13.7 µM (active)
- Absolute IC50 (XBP1) (X-box-binding protein 1): 10 µM
